In patent US7314864B1, “Humanin, a polypeptide suppressing neuronal death” (Keio University, priority 1999, dated 2008):

How the values were obtained:
[1] = test system: F11 cells transfected with V642I APP cDNA; experiment: V642I APP-induced F11 cell death, trypan blue exclusion assay; type: cell-based
Protocol: (§1) F11 cells (Platika, D. et al. (1985) Proc. Natl. Acad. Sci. U.S.A. 82, 3499-3503; Yamatsuji, T. et al. (1996) Science 272, 1349-1352) were cultured in HamF-12 media containing 18% fetal bovine serum (FBS) and antibiotics. 7×10^4/well of F11 cells were seeded into a 6-well plate; cultured in HamF-12 containing 18% FBS for 12 to 16 hours; transfected 3 hours with plasmids encoding FAD genes and plasmids encoding HN (pHN, and such) by lipofection in the absence of serum (1 μg of FAD cDNA expression plasmid, 1 μg of HN cDNA expression plasmid, 4 μl of LipofectAMINE, 8 μl of Plus reagent); and then, were cultured for 2 hours in HamF-12 media containing 18% FBS. Then, culture media were exchanged with HamF-12 media containing 10% FBS; and the cells were cultured for additional 67 hours. 72 hours after transfection, cell death was measured by trypan blue exclusion assay. Experiments using synthetic HN polypeptides were conducted as follows: F11 cells (at 7×10^4/well in a 6-well plate) were transfected 3 hours with FAD genes in the absence of serum, as mentioned above; after cultivation for 2 hours in HamF-12 media containing 18% FBS, the cells were cultured for 67 hours in HamF-12 media containing 10% FBS with various concentrations of HN polypeptides; and cell death was measured by trypan blue exclusion assay. ALS-associated mutant cDNAs of SOD1 were also similarly transfected, and examined for their neurotoxicity.
(§2) Trypan blue exclusion assay was performed as follows. Without prewashing, the cells were suspended with gentle pipetting into a serum-free media. 50 μl of 0.4% trypan blue solution (Sigma, Cat. #T-8154) were added (final concentration of 0.08%) to 200 μl cell suspension, and the suspension was mixed at room temperature. Within 3 minutes of the trypan blue solution addition, stained cells were counted. Cell mortality was determined [100-cell survival rate (%)] based on the stained cell count. LDH assay was performed using a kit (LDH-Cytotoxic Test; Wako Pure Chemical Industries, Cat. #299-50601) by sampling 6 μl of media in which neurons were cultured. Calcein staining was performed as described in literature (Bozyczko-Coyne, D. et al. (1993) Journal of Neuroscience Methods 50, 205-216). Specifically, 6 μM Calcein-AM (3′, 6′-Di-(O-acetyl)-2′-7′-bis[N,N-bis(carboxymethyl)aminomethyl]fluorescein, tetraacetoxymethyl ester; Dojindo, Cat. #349-07201) was added to the neurons; and 30 minutes or longer after Calcein-AM treatment, fluorescence (ex=490 nm, em=515 nm) was observed by fluorescence microscopy, and measured by a spectrometer. Specific fluorescence was calculated by subtracting basal fluorescence from total fluorescence. Basal fluorescence was assigned to be the value calculated from linear trypan blue positivity-fluorescence intensity relationship, corresponding to 100% trypan blue positivity.

[2] = test system: F11 cells transfected with FAD genes (V642I APP, NL-APP, M146L PS-1, N141I PS-2); experiment: FAD gene-induced F11 cell death, trypan blue exclusion assay; type: cell-based, rat/mouse hybrid
Protocol: as §1, §2

[3] = test system: primary cultured cortical neurons treated with Aβ1-43; experiment: Aβ1-43-induced cell death of primary cultured cortical neurons, trypan blue exclusion assay; type: cell-based; settings: 25 μM Aβ1-43, confirmed by LDH release and Calcein staining
Protocol: Primary culture of mouse cortical neurons was performed in poly-D-lysine-coated 24-well plates (Sumitomo Bakelite) in the absence of serum and in the presence of N2 supplement, as described in literature (Ecksioglu, Y. Z. et al. (1994) Brain Res. 644, 282-90). The purity of neurons prepared according to the method was >98%. The prepared neurons (1.25×10^5/well, 250 μl media/well) were preincubated in the absence or presence of 10 nM or 10 μM sHN polypeptides for 16 hours; and were treated with 25 μM Aβ1-43 in the absence or presence of sHN polypeptides at the same concentrations for 24 to 72 hours. Since primary cultured neurons are damaged even by temporary dryness during medium exchange, treatment of the cells by Aβ1-43 was performed as follows. First, half of the volume of the old medium (125 μl) was discarded. Then, 125 μl of pre-warmed fresh medium containing 50 μM Aβ1-43 and sHN with a concentration indicated above were added to the culture.
as §2

[4] = test system: primary cultured cortical neurons treated with Aβ1-43; experiment: Aβ1-43-induced cell damage of primary cultured cortical neurons, LDH release; type: cell-based, mouse
Protocol: Primary culture of mouse cortical neurons was performed in poly-D-lysine-coated 24-well plates (Sumitomo Bakelite) in the absence of serum and in the presence of N2 supplement, as described in literature (Ecksioglu, Y. Z. et al. (1994) Brain Res. 644, 282-90). The purity of neurons prepared according to the method was >98%. The prepared neurons (1.25×10^5/well, 250 μl media/well) were preincubated in the absence or presence of 10 nM or 10 μM sHN polypeptides for 16 hours; and were treated with 25 μM Aβ1-43 in the absence or presence of sHN polypeptides at the same concentrations for 24 to 72 hours. […]
(§3) Trypan blue exclusion assay was performed as follows. […] Within 3 minutes of the trypan blue solution addition, stained cells were counted. Cell mortality was determined [100-cell survival rate (%)] based on the stained cell count. […] Specifically, 6 μM Calcein-AM (3′, 6′-Di-(O-acetyl)-2′-7′-bis[N,N-bis(carboxymethyl)aminomethyl]fluorescein, tetraacetoxymethyl ester; Dojindo, Cat. #349-07201) was added to the neurons; and 30 minutes or longer after Calcein-AM treatment, fluorescence (ex=490 nm, em=515 nm) was observed by fluorescence microscopy, and measured by a spectrometer. Specific fluorescence was calculated by subtracting basal fluorescence from total fluorescence. […]

[5] = test system: primary cultured neurons treated with etoposide; experiment: Etoposide toxicity on primary cultured neurons; type: cell-based, mouse; settings: 20 μM etoposide; 10 μM polypeptide
Protocol: 25 μM Aβ1-43 was added to primary cultured cortical neurons in the presence (at indicated concentrations) or absence of sHN, sHNG, or sHNA. Addition of HN polypeptides was performed similarly to that described in FIG. 14. 72 hours after the initiation of Aβ treatment, cell death was measured by trypan blue exclusion assay. Primary cultured neurons treated similarly for 72 hours with 20 μM etoposide in the presence or absence of 10 μM sHN or HN derivatives were used as the positive controls in these experiments. Similar experiments were performed at least three times, and reproducible results were obtained. Mean ±S.D. values of three independent experiments are indicated in the graphs. […]
as §3

[6] = test system: F11/EcR cells transfected with ecdysone-inducible Q79 plasmid; experiment: Polyglutamine Q79-induced F11/EcR cell death (ecdysone-inducible), trypan blue exclusion assay; type: cell-based; settings: 1 μM polypeptide, 72 hours
Protocol: F11/EcR cell experiment using ecdysone was conducted as follows: F11/EcR cells were seeded at 7×10^4/well into a 6-well plate; cultured for 12 to 16 hours in HamF-12 media containing 18% FBS; and were similarly transfected in the absence of serum for 3 hours with 1 μg of ecdysone-inducible plasmid alone, or with 1 μg of HN-encoding plasmid, as mentioned above. After culturing for 12 to 16 hours in HamF-12 media containing 18% FBS, the cells were cultured for 2 hours in HamF-12 media containing 10% FBS, then ecdysone (Ponasterone) was added to the media (final concentration of 40 μM). Cell death was measured 72 hours after ecdysone treatment. Experiments using synthetic HN polypeptides were conducted as follows: cells were similarly transfected for 3 hours with FAD genes in the absence of serum; cultured for 12 to 16 hours in HamF-12 media containing 18% FBS; cultured for 2 hours in HamF-12 media containing 10% FBS and various concentrations of HN polypeptide; and then, 40 μM Ponasterone was added to the media. Cell death was measured by trypan blue exclusion assay after 72 hours from the ecdysone treatment. HD/SCA-associated Q79 cDNAs were also similarly transfected, and the neurotoxicity was tested.
Trypan blue exclusion assay was performed as follows. […] Within 3 minutes of the trypan blue solution addition, stained cells were counted. Cell mortality was determined [100-cell survival rate (%)] based on the stained cell count. […] Specifically, 6 μM Calcein-AM (3′, 6′-Di-(O-acetyl)-2′-7′-bis[N,N-bis(carboxymethyl)aminomethyl]fluorescein, tetraacetoxymethyl ester; Dojindo, Cat. #349-07201) was added to the neurons; and 30 minutes or longer after Calcein-AM treatment, fluorescence (ex=490 nm, em=515 nm) was observed by fluorescence microscopy, and measured by a spectrometer. Specific fluorescence was calculated by subtracting basal fluorescence from total fluorescence. Basal fluorescence was assigned to be the value calculated from linear trypan blue positivity-fluorescence intensity relationship, corresponding to 100% trypan blue positivity.

[7] = test system: F11 cells transfected with SOD1 mutants (A4T, G85R, G93A); experiment: ALS-associated SOD1 mutant-induced F11 cell death, trypan blue exclusion assay; type: cell-based, rat/mouse hybrid; settings: 100 μM polypeptide
Protocol: as §1, §3

[8] = test system: F11/EcR cells transfected with ecdysone-inducible FAD gene plasmid; experiment: Ecdysone-induced FAD gene expression F11/EcR cell death, trypan blue exclusion assay; type: cell-based; settings: 1 μM; NL-APP, V642I APP, M146L PS-1, N141I PS-2; ecdysone 72 hours
Protocol: F11/EcR cell experiment using ecdysone was conducted as follows: F11/EcR cells were seeded at 7×10^4/well into a 6-well plate; cultured for 12 to 16 hours in HamF-12 media containing 18% FBS; and were similarly transfected in the absence of serum for 3 hours with 1 μg of ecdysone-inducible plasmid alone, or with 1 μg of HN-encoding plasmid, as mentioned above. After culturing for 12 to 16 hours in HamF-12 media containing 18% FBS, the cells were cultured for 2 hours in HamF-12 media containing 10% FBS, then ecdysone (Ponasterone) was added to the media (final concentration of 40 μM). Cell death was measured 72 hours after ecdysone treatment. […] Cell death was measured by trypan blue exclusion assay after 72 hours from the ecdysone treatment. […]
Trypan blue exclusion assay was performed as follows. […] Within 3 minutes of the trypan blue solution addition, stained cells were counted. Cell mortality was determined [100-cell survival rate (%)] based on the stained cell count. […] Specifically, 6 μM Calcein-AM (3′, 6′-Di-(O-acetyl)-2′-7′-bis[N,N-bis(carboxymethyl)aminomethyl]fluorescein, tetraacetoxymethyl ester; Dojindo, Cat. #349-07201) was added to the neurons; and 30 minutes or longer after Calcein-AM treatment, fluorescence (ex=490 nm, em=515 nm) was observed by fluorescence microscopy, and measured by a spectrometer. […]

[9] = test system: primary cultured cortical neurons treated with Aβ1-43; experiment: Aβ1-43-induced cell death of primary cultured cortical neurons, trypan blue exclusion assay; type: cell-based; settings: 100 ng/ml

Compound | suppression of V642I APP-induced cell death ([1]; 10 nM polypeptide) | suppression of V642I APP-induced cell death ([1]; 10 μM polypeptide) | IC50 ([1]; 72 h) | cell mortality (%) ([1]; V642I APP cDNA, treated with 10 μM sHN polypeptides, 72 hours, mean ±S.D.) | concentration blocking neuronal death induced by the FAD genes ([2]; NL-APP, M146L PS-1, N141I PS-2) | extracellular concentration at which neuronal death is suppressed ([2]; chemically synthesized polypeptide) | concentration of maximal (saturation) suppression of neuronal death ([2]; four types of AD genes, listed as Humanin) | effect on Aβ1-43-induced cell death ([3]; 10 nM polypeptide) | effect on Aβ1-43-induced cell death ([3]; 10 μM polypeptide) | effect on cell damage (LDH released) by Aβ1-43 ([4]; 25 μM Aβ1-43, 10 μM polypeptide) | effect on toxic effect of etoposide [5] | effect on Q79-induced cell death, synthetic polypeptide [6] | effect on SOD1 mutant-induced cell death, synthetic polypeptide [7] | effect on cell death by ecdysone-induced FAD genes, synthetic polypeptide [8] | effect on increased LDH release induced by Aβ ([4]; 100 ng/ml) | effect on cell death of neurons induced by Aβ [9]
CC[C@H](C)[C@H](NC(=O)[C@H](CCC(=O)O)NC(=O)[C@H](CO)NC(=O)[C@@H](NC(=O)[C@H](CC(C)C)NC(=O)[C@H](CC(C)C)NC(=O)[C@H](CC(C)C)NC(=O)[C@H](CC(C)C)NC(=O)[C@H](CS)NC(=O)[C@H](CO)NC(=O)[C@H](Cc1ccccc1)NC(=O)CNC(=O)[C@H](CCCNC(=N)N)NC(=O)[C@@H]1CCCN1C(=O)[C@H](C)NC(=O)[C@@H](N)CCSC)[C@@H](C)O)C(=O)N[C@@H](CC(=O)O)C(=O)N[C@@H](CC(C)C)C(=O)N1CCC[C@H]1C(=O)N[C@H](C(=O)N[C@@H](CCCCN)C(=O)N[C@@H](CCCNC(=N)N)C(=O)N[C@@H](CCCNC(=N)N)C(=O)N[C@@H](C)C(=O)O)C(C)C [sHN] | extremely weak suppression | dramatically suppressed | ~100 nM | 14.4 ± 1.2 % | 1 µM | ≥ 10 nM | about 10 μM | did not show any effect | completely restored to a level observed under basal conditions | completely restored to a level observed under basal conditions | could not prevent | Extensive cell death | couldn't be suppressed | significant suppressive effect |  | 
NGF: NGF, tested at 100 ng/ml against Aβ-induced neuronal death [reference compound] |  |  |  |  |  |  |  |  |  |  |  |  |  |  | did not show effects | did not show effects
